# Data from US20260137700A1, “PHARMACEUTICAL COMBINATION OF PRMT5 INHIBITOR AND DNA DAMAGE-INDUCING SUBSTANCE” (SK Biopharmaceuticals Co., Ltd., priority 2022, published 2026).
# Tests used:
# [1] = system: cancer cell lines of Table 2 (A549, A549/CR, A549/PR, CAPAN-1, NCI-H1048, MDA-MB-231, Mia PaCa-2, SNU-324, OVCAR3, PA-1, PANC-1, U-87 MG); assay: Cell viability assay (WST) with combination synergy analysis (Bliss score); type: cell-based, human; settings: combination with various DNA damage inducers, FIGS. 1 to 25; culture ended on days 7 to 9
# Method: Most cell lines were obtained from the American Type Culture Collection (ATCC) or the Korean Cell Line Bank (KCLB). Combination experiments in cisplatin-resistant and paclitaxel-resistant cell lines were performed at the Asan Preclinical Evaluation center for cancer therapeutiX of Asan Medical Center, Seoul. All cell lines were maintained in appropriate growth medium for the cell line in 100-pi dishes oRT75 (75 cm2) flasks, cultured at 37° C. with 5% CO2, and passaged every 3-4 days. Growth medium conditions and cell line information are listed in Table 2, and the cells were counted using Countess (Invitrogen) to obtain the number of viable cells. Mutation and HRD status by cell type are described in Table 3.
# The next day, compound-87 was diluted 1/2 to 1/4 to a concentration of 20 μM to 0.002 μM and treated at a set concentration range, and the co-administered drug was diluted 1/2 to 1/3 to a concentration of 100 μM to 0.00046 μM and treated at a 1:1 (v/v) ratio. Finally, the treatment ratio of compound-87 and the co-administered substance was between 1:20000 and 1:0.00015, and in clinical practice, compound-87: drug to be co-administered can be treated at a ratio of 1:10000 to 1:0.0001.
# PANC-1 (wild-type BRCA1/BRCA2) pancreatic cancer cells were treated with compound-87 at concentrations of […], and E7016, a PARP inhibitor as a co-administered agent at concentration of 0.078, 0.156, 0.313, 0.625, 1.25, 2.5, 5, or 10 μM (FIG. 25). Cell culture was terminated on days 7 to 9, and cell viability and synergistic effect were evaluated for each combination of concentrations.
# Cell viability was measured by a colorimetric assay using water-soluble tetrazolium salt (WST). […]
# Results are normalized to DMSO-treated groups as 100% and expressed as the percent of viable cells upon compound addition. […]
# The synergy of each compound was analyzed using Combenefit software (Cambridge Research UK, Cambridge Institute, University of Cambridge, United Kingdom), and synergy was evaluated by using Blliss (Ref: Di Veroli et al., 2016, Bioinformatics 32(18):2866-2868). […]
# [2] = system: human small cell lung cancer cells NCI-H1048; assay: Subcutaneous xenograft mouse model of NCI-H1048 small cell lung cancer cells, tumor growth inhibition; type: in vivo; settings: day 23
# Method: For in vivo efficacy study in a subcutaneous xenograft mouse model of human small cell lung cancer cells NCI-H1048, co-administration of compound-87 as a PRMT5 inhibitor according to an example of the present invention and cisplatin as an alkylating agent of a chemotherapeutic agent, was performed. To produce a small cell lung cancer xenograft model, 10 million of NCI-H1048 cells were injected subcutaneously into the right flank of female nude mice, and tumor growth was monitored.
# To evaluate the anticancer effect, when the tumor volume reached approximately 162 mm^3 on average, the mice were divided into four groups. The all group included a solvent-treated group (Vehicle 1 (Compound-87)+Vehicle 2 (cisplatin) group), a Compound-87 monotherapy group (50 mg/kg), a cisplatin monotherapy group (4 mg/kg), and combination therapy group of Compound-87 and cisplatin. The Compound-87 treatment group was administered orally on a 3-day administration/4-day non-administration schedule, and cisplatin was administered intraperitoneally once a week for 22 days (Day 1-Day 23). All mice were euthanized on Day 22 (Day 23).
# [3] = system: CTG-1932, a human non-small cell lung cancer patient-derived cell line; assay: Subcutaneous xenograft mouse model of patient-derived CTG-1932 non-small cell lung cancer, tumor growth inhibition; type: in vivo; settings: day 9
# Method: For in vivo efficacy studies in a subcutaneous xenograft mouse model of CTG-1932, a human non-small cell lung cancer patient-derived cell line, combination therapy of compound-87 as a PRMT5 inhibitor according to one example of the present invention and with paclitaxel as a chemotherapy agent, was performed at Champions Oncology (USA).
# To produce a non-small cell lung cancer xenograft model, CTG-1932 tumor stock was grown and harvested from primary mice and then transplanted subcutaneously into the left flank of immunocompromised female mice as a 5×5×5 mm^3 tumor fragment. When the tumor volume reached approximately 150-300 mm^3, the mice were separated into four groups of 10 each. All group consisted of a solvent-treated group (vehicle group), a compound-87 monotherapy group (50 mg/kg, oral administration, 3 days on/4 days off), a paclitaxel monotherapy group (20 mg/kg, intraperitoneal administration once a week), and combination treatment group of compound-87 (50 mg/kg, oral administration, 3 days on/4 days off) and paclitaxel (20 mg/kg, intraperitoneal administration once a week). tumor volume and body weight were measured twice a week.
# [4] = system: DNA damage repair genes; assay: Gene expression analysis in patient-derived xenograft mice (CTG-2534); type: in vivo, mouse; settings: compound-87 oral, 3-day on/4-day off; tumors taken when solvent group reached 955 mm^3
# Text: In order to analyze changes in gene expression by PRMT5 inhibitor treatment according to one example of the present invention, patient-derived cells CTG-2534 were xenografted into mice subcutaneously, and then the mice were divided into groups, when the tumor volume reached 80 to 300 mm^3. The solvent-treated group (vehicle group) or the compound-87 treatment group was orally administered on a 3-day on/4-day off schedule. When the tumor volume of the solvent-treated group reached 955 mm^3, the tumors were separated and performed for gene expression analysis.
# FIG. 30 is a heat map showing the change in expression of DNA damage repair genes using Z-score values for Log2FPKM, after compound-87 treatment were performed in patient-derived lung cancer […] cell xenograft mice. In FIG. 30, the solvent-treated group is shown in red (positive value), and the compound-87-treated group is shown in blue (negative value).
smiles,measurement,setting,value
"CN1CCC(Oc2ccc3c(c2)OCCN(C[C@H](O)CN2CCc4ccccc4C2)C3=O)CC1 [Compound-87, 4-[(2R)-3-(3,4-dihydro-1H-isoquinolin-2-yl)-2-hydroxy-propyl]-8-[(1-methyl-4-piperidyl)oxy]-2,3-dihydro-1,4-benzoxazepin-5-one]","inhibition of cell viability, combination treatment compared to single agent",[1],enhanced inhibition effects of cell viability
same,partial response,"[2]; compound-87 50 mg/kg oral combined with cisplatin 4 mg/kg i.p., partial response in all mice",60.6%
same,tumor growth inhibition rate,"[2]; compound-87 alone, 50 mg/kg oral, 3-day administration/4-day non-administration",62.0%
same,tumor growth inhibition compared to the solvent-treated group,"[3]; compound-87 50 mg/kg oral single agent, 3 days on/4 off, not significant",39%
same,tumor growth inhibition compared to the solvent-treated group,[3]; compound-87 50 mg/kg oral together with paclitaxel 20 mg/kg i.p. once a week,89%
same,"change in expression of DNA damage repair genes (Z-score of Log2FPKM, heat map FIG. 30)",[4],reduced expression of DNA damage repair genes
